Experimental data as given in patent US4780467A, “Esters of N-alkyl-nortropines and their quaternary derivatives having anti-bronchospastic activity, and pharmaceutical compositions containing them” (Laboratori Guidotti Spa, priority 1986, dated 1988).
Read-outs that look alike come from different tables or passages of the source.

Key:
[1] = test system: bronchospasm induced by acetyl choline aerosol in guinea pig; test: inhibition of bronchospasm induced by acetyl choline aerosol in awake guinea pig; assay type: in vivo; conditions: for ED50: Cavia porcellus, iv; for ED50, inhibition of bronchospasm induced by acetyl choline aerosol: i.v.
[2] = test system: isolated trachea of guinea pig; test: relaxation of isolated trachea of guinea pig precontracted with methacoline; conditions: Cavia porcellus, read-out: IC50, relaxing the contraction of the isolated trachea of guinea pig precontracted with methacoline
Text: The compounds of the invention have been pharmacologically studied by means of in vitro and in vivo tests, suitable to evidence the anti-bronchospastic properties of the compounds. […] To this action a remarkable anti-bronchospastic action in the tests in vivo corresponded after administration by i.v. and inhalatory route.

[3] = test system: platelet aggregation (rabbit prp) from PAF acether; test: platelet aggregation (rabbit prp) from PAF-acether; assay type: cell-based; conditions: Oryctolagus cuniculus
[4] = test system: platelet aggregation (rabbit prp) from collagen; test: platelet aggregation (rabbit prp) from collagen; assay type: cell-based; conditions: Oryctolagus cuniculus
[5] = test system: platelet aggregation (rabbit prp) from arachidonic acid; test: platelet aggregation (rabbit prp) from arachidonic acid; assay type: cell-based; conditions: Oryctolagus cuniculus
[6] = acute toxicity in the mouse; conditions: in vivo; for LD50: approximate value; for selectivity ratio: ratio os/i.p., read-out: LD50 os/i.p.
[7] = test system: PAF-acether induced bronchospasm in guinea pig; test: inhibition of PAF-acether induced bronchospasm in anestetized guinea pig; assay type: in vivo; conditions: for inhibition % of PAF-acether induced bronchospasm: guinea pig, i.v.; for inhibition of PAF-acether induced bronchospasm (in words): up to 3 μmol/kg
[8] = ip, read-out: approximate value of LD50, i.p.
[9] = po, os, read-out: approximate value of LD50, os

Structure (SMILES): CC(C)[N+]1(C(C)C)[C@@H]2CC[C@H]1C[C@@H](OC(=O)C1CCCC=C1c1ccccc1)C2 (some centres unmarked) [1st formula, 2nd R, 4th R']
- ED50 [1]: 2.5 µmol/kg
- IC50 [2]: 46 nM

Structure (SMILES): CC(C)[N+]1(C)[C@@H]2CC[C@H]1C[C@@H](OC(=O)C1CCCC=C1c1ccccc1)C2 (stereo partly drawn) [Example 13, Endo-3-(2-phenyl-2-cyclohexen-1-carbonyloxy)-8-sin-isopropyl-8-methyl-8-azoniabicyclo-[3.2.1.]-octane iodide]
- IC50 [3]: 39100 nM
- IC50 [4]: > 100000 nM
- IC50 [5]: > 100000 nM
- LD50 [6, 8]: 123 mg/kg
- selectivity ratio ([6]; ip): 4.1
- LD50 [6, 9]: 500 mg/kg
- IC50 [2]: 0.67 nM
- inhibition % of PAF-acether induced bronchospasm ([7]; 0.3 μmol kg^-1): 0%
- inhibition % of PAF-acether induced bronchospasm ([7]; 3 μmol kg^-1): 28 ± 13%

Structure (SMILES): CCCC[N+]1(CC)[C@@H]2CC[C@H]1C[C@@H](OC(=O)C1CCCC=C1c1ccccc1)C2 (some centres unmarked) [1st formula, 1st R, 7th R']
- IC50 [2]: 69 nM

Structure (SMILES): CCC[N+]1(CC(C)C)[C@@H]2CC[C@H]1C[C@@H](OC(=O)C1CCCC=C1c1ccccc1)C2 (some centres unmarked) [1st formula, 3rd R, 6th R']
- ED50 [1]: > 5.6 µmol/kg
- IC50 [2]: 1200 nM

Structure (SMILES): CN1[C@@H]2CC[C@H]1C[C@@H](OC(=O)CC1=C(c3ccccc3)CCCC1)C2 [Example 6, Endo-3-(2-phenyl-1-cyclohexen-1-acetoxy)-8-sin-methyl-8-azabicyclo-[3.2.1.]-octane]
- ED50 [1]: ~15 µmol/kg
- IC50 [2]: 4200 nM

Structure (SMILES): CC(C)N1[C@@H]2CC[C@H]1C[C@@H](OC(=O)C1CCCC=C1c1ccccc1)C2 (stereo partly drawn) [Example 1, Endo-3-(2-phenyl-2-cyclohexen-1-carbonyloxy)-8-sin-isopropyl-8-azabicyclo-[3.2.1]-octane]
- ED50 [1]: ~1.5 µmol/kg
- IC50 [2]: 350 nM

Structure (SMILES): CCN1[C@@H]2CC[C@H]1C[C@@H](OC(=O)C1CCCC=C1c1ccccc1)C2 (stereo partly drawn) [Example 4, Endo-3-(2-phenyl-2-cyclohexen-1-carbonyloxy)-8-sin-ethyl-8-azabicyclo-[3.2.1.]-octane]
- ED50 [1]: 6.12 µmol/kg
- IC50 [2]: 280 nM

Structure (SMILES): CN1[C@@H]2CC[C@H]1C[C@@H](OC(=O)C(CO)c1ccccc1)C2 (some centres unmarked) [Atropine sulphate, atropine sulphate, reference compound]
- ED50 [1]: 0.068 µmol/kg
- ED50, inhibition of bronchospasm induced by acetyl choline aerosol [1]: 68 nmol/kg
- IC50 [2]: 6.9 nM
- inhibition of PAF-acether induced bronchospasm (in words) ([7]; anestetized guinea pig): fully inactive
- inhibition % of PAF-acether induced bronchospasm ([7]; 3 μmol kg^-1): 0%

Structure (SMILES): CC(C)N1[C@@H]2CC[C@H]1C[C@@H](OC(=O)CC1=C(c3ccccc3)CCCC1)C2 [Example 7, Endo-3-(2-phenyl-1-cyclohexen-1-acetoxy)-8-sin-isoproyl-8-azabicyclo-[3.2.1.]-octane]
- ED50 [1]: > 7.4 µmol/kg
- IC50 [2]: 30000 nM

Structure (SMILES): CC(C)[N+]1(C)[C@@H]2CC[C@H]1C[C@@H](OC(=O)C(CO)c1ccccc1)C2 (some centres unmarked) [ipratropium bromide, reference compound]
- ED50 [1]: 0.012 µmol/kg
- ED50, inhibition of bronchospasm induced by acetyl choline aerosol [1]: 12 nmol/kg
- IC50 [2]: 2 nM
- inhibition of PAF-acether induced bronchospasm (in words) ([7]; anestetized guinea pig): fully inactive
- inhibition % of PAF-acether induced bronchospasm ([7]; 3 μmol kg^-1): 7 ± 10%

Structure (SMILES): CCC[N+]1(C)[C@@H]2CC[C@H]1C[C@@H](OC(=O)CC1=C(c3ccccc3)CCCC1)C2 (some centres unmarked) [2nd formula, 1st R, 5th R']
- ED50 [1]: > 0.6 µmol/kg
- IC50 [2]: 240 nM

Structure (SMILES): CC[N+]1(CC(C)C)[C@@H]2CC[C@H]1C[C@@H](OC(=O)C1CCCC=C1c1ccccc1)C2 (some centres unmarked) [1st formula, 1st R, 6th R']
- ED50 [1]: > 5.7 µmol/kg
- IC50 [2]: 54 nM

Structure (SMILES): C[N+]1(C)[C@@H]2CC[C@H]1C[C@@H](OC(=O)CC1=C(c3ccccc3)CCCC1)C2 [Example 8, Endo-3-(2-phenyl-1-cyclohexen-1-acetoxy)-8,8-dimethyl-8-azoniabicyclo-[3.2.1.]-octane iodide]
- LD50 [6, 8]: 45 mg/kg
- selectivity ratio ([6]; ip): 18
- LD50 [6, 9]: 800 mg/kg
- IC50 [2]: 1.1 nM

Structure (SMILES): CC[N+]1(C(C)C)[C@@H]2CC[C@H]1C[C@@H](OC(=O)CC1=C(c3ccccc3)CCCC1)C2 (stereo partly drawn) [Example 32, Endo-3-(2-phenyl-1-cyclohexen-1-acetoxy)-8-sin-isopropyl-8-ethyl-8-azoniabicyclo-[3.2.1.]-octane iodide]
- ED50 [1]: > 5.7 µmol/kg
- IC50 [2]: 9000 nM

Structure (SMILES): CCC[N+]1(C(C)C)[C@@H]2CC[C@H]1C[C@@H](OC(=O)CC1=C(c3ccccc3)CCCC1)C2 (some centres unmarked) [2nd formula, 2nd R, 5th R']
- ED50 [1]: > 5.6 µmol/kg
- IC50 [2]: 8500 nM

Structure (SMILES): CCCC[N+]1(CCC)[C@@H]2CC[C@H]1C[C@@H](OC(=O)C1CCCC=C1c1ccccc1)C2 (some centres unmarked) [1st formula, 3rd R, 7th R']
- ED50 [1]: > 5.6 µmol/kg
- IC50 [2]: 190 nM

Structure (SMILES): CC[N+]1(CC)[C@@H]2CC[C@H]1C[C@@H](OC(=O)C1CCCC=C1c1ccccc1)C2 (stereo partly drawn) [Example 21, Endo-3-(2-phenyl-2-cyclohexene-1-carbonyloxy)-8,8-di-ethyl-azoniabicyclo-[3.2.1.]-octane iodide]
- IC50 [3]: 2400 nM
- IC50 [4]: > 100000 nM
- IC50 [5]: > 100000 nM
- ED50 [1]: 0.029 µmol/kg
- LD50 [6, 8]: 107 mg/kg
- selectivity ratio ([6]; ip): 7.5
- LD50 [6, 9]: 800 mg/kg
- IC50 [2]: 0.03 nM
- ED50 ([7]; Cavia porcellus, anestetized guinea pig): 0.8 µmol/kg
- inhibition % of PAF-acether induced bronchospasm ([7]; 0.3 μmol kg^-1): 43 ± 16%
- inhibition % of PAF-acether induced bronchospasm ([7]; 3 μmol kg^-1): 64 ± 16%

Structure (SMILES): CC[N+]1(C)[C@@H]2CC[C@H]1C[C@@H](OC(=O)CC1=C(c3ccccc3)CCCC1)C2 (stereo partly drawn) [Example 9, Endo-3-(2-phenyl-1-cyclohexen-1-acetoxy)-8-sin-methyl-8-ethyl-8-azoniabicyclo-[3.2.1.]-octane iodide]
- ED50 [1]: ~0.4 µmol/kg
- IC50 [2]: 32 nM

Structure (SMILES): CCCN1[C@@H]2CC[C@H]1C[C@@H](OC(=O)C1CCCC=C1c1ccccc1)C2 (stereo partly drawn) [Example 5, Endo-3-(2-phenyl-2-cyclohexen-1-carbonyloxy)-8-sin-propyl-8-azabicyclo-[3.2.1.]-octane]
- ED50 [1]: > 7.7 µmol/kg
- IC50 [2]: 1700 nM

Structure (SMILES): CCC[N+]1(CCC)[C@@H]2CC[C@H]1C[C@@H](OC(=O)C1CCCC=C1c1ccccc1)C2 (some centres unmarked) [1st formula, 3rd R, 5th R']
- IC50 [2]: 380 nM

Structure (SMILES): CCC[N+]1(C(C)C)[C@@H]2CC[C@H]1C[C@@H](OC(=O)C1CCCC=C1c1ccccc1)C2 (some centres unmarked) [1st formula, 3rd R, 4th R']
- ED50 [1]: > 5.7 µmol/kg

Structure (SMILES): CC[N+]1(C)[C@@H]2CC[C@H]1C[C@@H](OC(=O)C1CCCC=C1c1ccccc1)C2 (stereo partly drawn) [Example 20, Endo-3-(2-phenyl-2-cyclohexen-1-carbonyloxy)-8-sin-ethyl-8-methyl-8-azoniabicyclo-[3.2.1.]-octane iodide]
- IC50 [3]: 7700 nM
- IC50 [4]: > 100000 nM
- IC50 [5]: > 100000 nM
- LD50 [6, 8]: 126 mg/kg
- selectivity ratio ([6]; ip): 2.8
- LD50 [6, 9]: 350 mg/kg
- IC50 [2]: 0.95 nM
- inhibition % of PAF-acether induced bronchospasm ([7]; 0.3 μmol kg^-1): 3 ± 11%
- inhibition % of PAF-acether induced bronchospasm ([7]; 3 μmol kg^-1): 36 ± 17%

Structure (SMILES): CCC[N+]1(CC)[C@@H]2CC[C@H]1C[C@@H](OC(=O)C1CCCC=C1c1ccccc1)C2 (stereo partly drawn) [Example 26, Endo-3-(2-phenyl-2-cyclohexen-1-carbonyloxy)-8-sin-propyl-8-ethyl-8-azoniabicyclo-[3.2.1.]-octane iodide]
- ED50 [1]: 0.228 µmol/kg

Structure (SMILES): CC(C)[N+]1(C)[C@@H]2CC[C@H]1C[C@@H](OC(=O)CC1=C(c3ccccc3)CCCC1)C2 (stereo partly drawn) [Example 31, Endo-3-(2-phenyl-1-cyclohexen-1-acetoxy)-8-sin-isopropyl-8-methyl-8-azoniabicyclo-[3.2.1.]-octane iodide]
- IC50 [2]: 27 nM

Structure (SMILES): CC(C)C[N+]1(C(C)C)[C@@H]2CC[C@H]1C[C@@H](OC(=O)C1CCCC=C1c1ccccc1)C2 (some centres unmarked) [1st formula, 2nd R, 6th R']
- ED50 [1]: 1.08 µmol/kg
- IC50 [2]: 80 nM

Structure (SMILES): CC[N+]1(C(C)C)[C@@H]2CC[C@H]1C[C@@H](OC(=O)C1CCCC=C1c1ccccc1)C2 (some centres unmarked) [1st formula, 1st R, 4th R']
- ED50, inhibition of bronchospasm induced by acetyl choline aerosol [1]: ~ 5900 nmol kg^-1

Structure (SMILES): CCCC[N+]1(C(C)C)[C@@H]2CC[C@H]1C[C@@H](OC(=O)C1CCCC=C1c1ccccc1)C2 (some centres unmarked) [1st formula, 2nd R, 7th R']
- ED50 [1]: 0.99 µmol/kg
- IC50 [2]: 45 nM

Structure (SMILES): CCC[N+]1(C)[C@@H]2CC[C@H]1C[C@@H](OC(=O)C1CCCC=C1c1ccccc1)C2 (stereo partly drawn) [Example 25, Endo-3-(2-phenyl-2-cyclohexen-1-carbonyloxy)-8-sin-propyl-8-methyl-8-azoniabicyclo-[3.2.1.]-octane iodide]
- LD50 [6, 8]: 124 mg/kg
- selectivity ratio ([6]; ip): 4.8
- LD50 [6, 9]: 600 mg/kg
- IC50 [2]: 3.3 nM

Structure (SMILES): CC(C)[N+]1(C(C)C)[C@@H]2CC[C@H]1C[C@@H](OC(=O)CC1=C(c3ccccc3)CCCC1)C2 [2nd formula, 2nd R, 4th R']
- ED50 [1]: > 5.6 µmol/kg
- IC50 [2]: 67000 nM

Structure (SMILES): CC[N+]1(C(C)C)[C@@H]2CC[C@H]1C[C@@H](OC(=O)C1CCCC=C1c1ccccc1)C2 (stereo partly drawn) [Example 14, Endo-3-(2-phenyl-2-cyclohexen-1-carbonyloxy)-8-sin-isopropyl-8-ethyl-8-azoniabicylo-[3.2.1.]-octane iodide]
- IC50 [3]: 29900 nM
- IC50 [4]: > 100000 nM
- IC50 [5]: > 100000 nM
- ED50, inhibition of bronchospasm induced by acetyl choline aerosol ([1]; listed as 1st formula, 2nd R, R'=CH2CH3): 22 nmol/kg
- LD50 [6, 8]: 91 mg/kg
- selectivity ratio ([6]; ip): 3.3
- LD50 [6, 9]: 300 mg/kg
- inhibition % of PAF-acether induced bronchospasm ([7]; 0.3 μmol kg^-1): 0%
- inhibition % of PAF-acether induced bronchospasm ([7]; 3 μmol kg^-1): 42 ± 14%

Structure (SMILES): CC(C)[N+]1(C)[C@@H]2CC[C@H]1C[C@@H](OC(=O)CC1=C(c3ccccc3)CCCC1)C2 (some centres unmarked) [2nd formula, 1st R, 4th R']
- ED50 [1]: > 0.6 µmol/kg
